Data set [1] addresses T1, acid sphingomyelinase (ASMase) (Mus musculus, UniProt Q04519).
T1 construct: spinal cord tissues were homogenized in buffers for each specific assay; from tissue; host or cells: mouse spinal cord homogenate (Na acetate pH 5.0 lysis buffer)
T1 sequence (Q04519 45-627): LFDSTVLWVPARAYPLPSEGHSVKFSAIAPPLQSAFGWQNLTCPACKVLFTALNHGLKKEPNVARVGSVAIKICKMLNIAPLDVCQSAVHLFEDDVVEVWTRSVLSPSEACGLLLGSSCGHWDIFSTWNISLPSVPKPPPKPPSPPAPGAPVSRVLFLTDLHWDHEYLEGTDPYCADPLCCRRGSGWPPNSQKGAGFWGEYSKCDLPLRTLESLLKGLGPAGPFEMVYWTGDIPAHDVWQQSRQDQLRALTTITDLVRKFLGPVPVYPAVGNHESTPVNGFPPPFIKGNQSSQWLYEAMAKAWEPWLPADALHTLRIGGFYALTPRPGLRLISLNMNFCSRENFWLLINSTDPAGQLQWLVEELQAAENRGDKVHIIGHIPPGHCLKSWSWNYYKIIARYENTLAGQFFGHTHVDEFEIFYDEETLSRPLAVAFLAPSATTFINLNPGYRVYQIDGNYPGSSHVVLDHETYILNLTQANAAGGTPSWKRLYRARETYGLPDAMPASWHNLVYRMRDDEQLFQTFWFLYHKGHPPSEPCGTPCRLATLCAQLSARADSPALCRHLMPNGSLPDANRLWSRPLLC
In words: sphingomyelinase activity in spinal cord tissues, acid isoforms (Amplex Red kit). The format is in vivo, mice. The conditions noted are these: D609 40 mg/kg/d co-administered with morphine.
Description: Sphingomyelinase activity was measure using Amplex® Red Sphingomyelinase Assay Kit (Molecular Probes, Eugene, Oreg.) following manufacturer's instructions. […] For the acid isoforms, Na acetate (100 mM and pH 5.0) lysis buffer was used. 2 mM EDTA was added to the lysis buffer for detection of the insoluble isoform. For neutral isoform detection, the tissues were homogenized in Hepes (20 mM, pH 7.4) lysis buffer. The kinetics for sphingomyelinase activity was measured in a fluorescence microplate reader for two hours followed by normalization per protein concentration of the sample. Hydrogen peroxide and sphingomyelinase were used as positive controls.

For data set [2], the system named is mice. It is filed as in vivo. The note with it: for responses to acute morphine in control groups vs control groups treated with drug: no repeated morphine; for development of antinociceptive tolerance: co-administration with morphine, i.p., FB1 1 mg/kg, myriocin 0.2 mg/kg, D609 40 mg/kg; for antinociceptive effects when tested alone: drug alone (not shown).
For data set [3], the system named is mice. In words: Rotarod motor function test. The format is in vivo. The conditions noted are these: myriocin 0.4 mg/kg, FB1 1 mg/kg, D609 40 mg/kg; fifteen, thirty, and sixty minutes after administration; n=4; vs vehicle. The procedure: Mice were trained before experimentation for their ability to remain for one-hundred twenty seconds on a revolving Rotarod apparatus (accelerating units increase from 3.5 to 35 rpm in five minutes). Mice (n=4 per group) were injected with an i.p. injection of the highest dose of FB1 (1 mg/kg), myriocin (0.4 mg/kg), D609 (40 mg/kg) used to block antinociceptive tolerance or its vehicle. Mice (n=4 per group) were tested and examined for motor […] on the Rotarod at fifteen, thirty, and sixty minutes after drug administration as described in the method section. The latency time to fall off the Rotarod was determined. A cut-off time of one-hundred twenty seconds was used.
(The rotarod test checks motor coordination on a turning rod.)

The subject of a further data set is ceramide. Briefly: immunohistochemistry for ceramide in spinal cord (Example 3). The note with it: co-administered with morphine; FB1 1 mg/kg/d, myriocin 0.4 mg/kg/d, D609 40 mg/kg/d.
The subject of data set [4] is mice. Briefly: hot plate, morphine-induced antinociceptive tolerance (Examples 3-5). It is filed as in vivo, Male CD-1 mice. The note with it: for development of tolerance, dose-dependence: co-administered with morphine, FB1 0.1-1 mg/kg/d, myriocin 0.1-0.4 mg/kg/d, D609 10-40 mg/kg/d; for development of tolerance, dose-dependence / hot plate latencies following s.c. saline / difference in responses to acute morphine (0.3-3 mg/kg), drug vs vehicle: n=10; for hot plate latencies following s.c. saline: day five, highest dose of drug, no morphine; for difference in responses to acute morphine (0.3-3 mg/kg), drug vs vehicle: highest dose over five days: FB1 1 mg/kg/d, myriocin 0.4 mg/kg/d, D609 40 mg/kg/d; for antinociceptive effects when tested alone: highest dose; for % MPE: tolerant mice, single i.p. dose fifteen minutes before acute morphine 3 mg/kg: FB1 1 mg/kg, myriocin 0.4 mg/kg, D609 40 mg/kg, n=6. The procedure: Nociceptive thresholds were determined by measuring latencies (in seconds) of mice placed in a transparent glass cylinder on a hot plate (Ugo Basile, Italy) maintained at 52° C. Determination of antinociception was assessed between 7 and 10:00 A.M. All injections were given intra-peritoneally (i.p.) or subcutaneously (s.c.) in a volume of 0.1 and 0.3 ml, respectively, at approximately 7 A.M. and 4 P.M. Responses indicative of nociception included intermittent lifting and/or licking of the hindpaws or escape behavior. […] Results were expressed as percentage of maximum possible antinociceptive effect, which was calculated as follows: (response latency−baseline latency)/(cut-off latency−baseline latency)×100. A cut-off latency of twenty seconds was employed to prevent tissue damage. Ten mice per group were used and all experiments were conducted with the experimentors blinded to treatment conditions. […] The following experimental groups were used: […]
Vehicle (V) Group: In this group, mice were injected twice per day for four days with an i.p, injection of saline and a s.c. injection of saline.

In another data set the test system is neutral SMase. The note with it: at 5 mM GSH; cited from earlier work.
The next data set concerns the target T2, acid SMase (Homo sapiens, UniProt P17405).
T2 sequence (P17405 47-631): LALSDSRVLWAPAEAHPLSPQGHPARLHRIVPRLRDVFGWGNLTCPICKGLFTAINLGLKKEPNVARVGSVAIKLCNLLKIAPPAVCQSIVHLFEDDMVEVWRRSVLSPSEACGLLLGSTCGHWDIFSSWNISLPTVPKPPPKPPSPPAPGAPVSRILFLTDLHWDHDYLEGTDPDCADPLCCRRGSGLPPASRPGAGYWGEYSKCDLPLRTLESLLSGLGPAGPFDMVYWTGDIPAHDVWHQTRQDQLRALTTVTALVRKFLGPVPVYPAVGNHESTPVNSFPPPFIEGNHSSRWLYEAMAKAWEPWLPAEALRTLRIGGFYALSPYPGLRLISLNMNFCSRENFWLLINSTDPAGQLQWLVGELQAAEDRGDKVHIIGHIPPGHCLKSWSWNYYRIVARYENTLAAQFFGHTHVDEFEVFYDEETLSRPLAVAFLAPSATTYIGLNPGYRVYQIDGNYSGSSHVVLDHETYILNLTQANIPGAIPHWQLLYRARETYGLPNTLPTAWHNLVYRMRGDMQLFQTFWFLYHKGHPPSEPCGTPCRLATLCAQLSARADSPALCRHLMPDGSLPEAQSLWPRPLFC
The note with it: at 30 μM; cited from earlier work.

In data set [5] the test system is serine palmitoyl transferase (SPT). In words: serine palmitoyl transferase (SPT) activity. The format is in vivo, mice. The conditions noted are these: co-administration of morphine with myriocin 0.4 mg/kg/d, n=10. As to the method: SPT activity was determined by measuring the incorporation of [^3H] serine into 3-ketosphinganine following the method previously described (Williams et al., 1984). The results were normalized by the samples' protein concentration.

The text below walks through data of patent US20120328602A1, “COMPOSITIONS AND METHODS FOR TREATING CONDITIONS ASSOCIATED WITH CERAMIDE BIOSYNTHESIS” (priority 2007, published 2012).

Read-outs that look alike come from different tables or passages of the source.

Regarding `S=C([S-])OC1CC2CC1C1CCCC21.[K+]` (stereo not drawn) [D609, tricyclodecan-9-xanthogenate], the “increased activity of ASMase” value in data set [1] is “blocked the increased activity of ASMase”. In the data set with mice [2], the “responses to acute morphine in control groups vs control groups treated with drug” value is given as “similar”, the “development of antinociceptive tolerance” value is “blocked antinociceptive tolerance” and the “antinociceptive effects when tested alone” value (“antinociceptive effects” below) is given as “no antinociceptive effects”. In the data set with mice [3], the “Rotarod motor function deficits” value is recorded as “did not show signs of Rotarod deficits”. Further, the ceramide immunostaining result in the data set with ceramide is recorded as “blocked”. Also, in the data set with mice [4], the “development of tolerance, dose-dependence” value was “blocked in a dose-dependent manner”; the “hot plate latencies following s.c. saline” value was “six and seven”; the “difference in responses to acute morphine (0.3-3 mg/kg), drug vs vehicle” value is “statistically insignificant”; the “antinociceptive effects” value is recorded as “none of FB1, myriocin, or D609 had antinociceptive effects”. In addition, the “% MPE” value in the data set with mice [4] was 11±2%.
As for `N[C@@H](CCC(=O)N[C@@H](CS)C(=O)NCC(=O)O)C(=O)O` [Glutathione], in the data set with neutral SMase, the “inhibition of neutral SMase” value is listed as “greater than 95%”.
Regarding `COc1ccc(CCN(C)CCCOc2ccc(S(=O)(=O)c3c(C(C)C)cn4ccccc34)cc2)cc1OC` [SR33557], the “inhibition of acid SMase” value on acid SMase is on record as 72%.
For `CCCCCCC(=O)CCCCCC/C=C/C[C@@H](O)[C@H](O)[C@@](N)(CO)C(=O)O` [myriocin], in data set [5], the “activation of SPT” value is on record as “blocked, as expected, the activation of SPT”. Besides, in the data set on mice [2], the “responses to acute morphine in control groups vs control groups treated with drug” value was “similar”, the “development of antinociceptive tolerance” value was “blocked antinociceptive tolerance” and the “antinociceptive effects” value is listed as “no antinociceptive effects”. The “Rotarod motor function deficits” value in the data set with mice [3] is “did not show signs of Rotarod deficits”. In addition, in the data set with ceramide, the ceramide immunostaining result is on record as “blocked”. Besides, in the data set with mice [4], the “development of tolerance, dose-dependence” value is recorded as “blocked”; the “hot plate latencies following s.c. saline” value was “six and seven”; the “difference in responses to acute morphine (0.3-3 mg/kg), drug vs vehicle” value is listed as “statistically insignificant”; the “antinociceptive effects” value is listed as “none of FB1, myriocin, or D609 had antinociceptive effects”. Also, the “% MPE” value with mice [4] is reported as 13±2%.
